Source: the supplement of paper PMC10307832

Columns and labels:
Experiment in all cases: relative viability (nuclei count vs DMSO), 5 days (fraction); higher = more cells survive
[1] = compound: CC(C)(C)c1nc(-c2cccc(NS(=O)(=O)c3c(F)cccc3F)c2F)c(-c2ccnc(N)n2)s1 [Dabrafenib] + CC(=O)c1c(C)c2cnc(Nc3ccc(N4CCNCC4)cn3)nc2n(C2CCCC2)c1=O [Palbociclib] (partner 0.5 µM)
Outline: (§1)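 For relative viability, nuclei counts in treated wells were divided by those in vehicle wells. Lung cancer cell lines had been pin-tool dosed in 1536-well plates the day after seeding and cultured for 5 days, then fixed and stained in one step (final 0.05% Triton X-100, 1% formaldehyde, 1 ug/ml Hoechst) and imaged at 4×. Doses were one drug alone or a fixed anchor-drug dose plus five library-drug doses (not always all listed) in √10 steps, and values are duplicate-plate medians.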

[2] = compound: NC(=O)c1ccc(N(C(N)=O)c2c(F)cccc2F)nc1-c1ccc(F)cc1F [VX-702] + C[C@@H](Oc1cc(-c2cnn(C3CCNCC3)c2)cnc1N)c1c(Cl)ccc(F)c1Cl [Crizotinib] (partner 1 µM)
Outline: as §1

[3] = compound: NC(=O)c1ccc(N(C(N)=O)c2c(F)cccc2F)nc1-c1ccc(F)cc1F [VX-702] + Nc1ncn([C@H]2C[C@H](O)[C@@H](CO)O2)c(=O)n1 [Decitabine] (partner 2 µM)
Outline: as §1

[4] = compound: CC(C)(C)c1nc(-c2cccc(NS(=O)(=O)c3c(F)cccc3F)c2F)c(-c2ccnc(N)n2)s1 [Dabrafenib] + NC(=O)Nc1cc(-c2cccc(F)c2)sc1C(=O)N[C@H]1CCCNC1 [AZD7762] (partner 0.2 µM)
Outline: as §1

NCI-H23
relative viability ([1]; first compound 0.009487 µM): 0.575
relative viability ([1]; first compound 0.03 µM): 0.465
relative viability ([1]; first compound 0.09487 µM): 0.455
relative viability ([1]; first compound 0.3 µM): 0.634
relative viability ([2]; first compound 0.02 µM): 0.524
relative viability ([2]; first compound 0.2 µM): 0.523
relative viability ([2]; first compound 0.6325 µM): 0.678
relative viability ([2]; first compound 2 µM): 0.756
relative viability ([3]; first compound 0.02 µM): 0.322
relative viability ([3]; first compound 0.2 µM): 0.35
relative viability ([3]; first compound 0.6325 µM): 0.321
relative viability ([3]; first compound 2 µM): 0.317
relative viability ([4]; first compound 0.009487 µM): 0.207
relative viability ([4]; first compound 0.03 µM): 0.205
relative viability ([4]; first compound 0.09487 µM): 0.254
relative viability ([4]; first compound 0.3 µM): 0.217

NCI-H322M
relative viability ([1]; first compound 0.009487 µM): 0.545
relative viability ([1]; first compound 0.09487 µM): 0.526
relative viability ([1]; first compound 0.3 µM): 0.477
relative viability ([2]; first compound 0.02 µM): 1.04
relative viability ([2]; first compound 0.2 µM): 0.861
relative viability ([2]; first compound 0.6325 µM): 1.01
relative viability ([2]; first compound 2 µM): 1.08
relative viability ([3]; first compound 0.02 µM): 0.67
relative viability ([3]; first compound 0.2 µM): 0.668
relative viability ([3]; first compound 0.6325 µM): 0.765
relative viability ([3]; first compound 2 µM): 0.745
relative viability ([4]; first compound 0.009487 µM): 0.613
relative viability ([4]; first compound 0.09487 µM): 0.619
relative viability ([4]; first compound 0.3 µM): 0.612

NCI-H358
relative viability ([1]; first compound 0.003 µM): 0.111
relative viability ([1]; first compound 0.009487 µM): 0.149
relative viability ([1]; first compound 0.03 µM): 0.12
relative viability ([1]; first compound 0.09487 µM): 0.153
relative viability ([1]; first compound 0.3 µM): 0.122
relative viability ([2]; first compound 0.02 µM): 0.659
relative viability ([2]; first compound 0.2 µM): 0.549
relative viability ([2]; first compound 0.6325 µM): 0.542
relative viability ([2]; first compound 2 µM): 0.681
relative viability ([3]; first compound 0.02 µM): 0.204
relative viability ([3]; first compound 0.2 µM): 0.333
relative viability ([3]; first compound 0.6325 µM): 0.244
relative viability ([3]; first compound 2 µM): 0.223
relative viability ([4]; first compound 0.009487 µM): 0.866
relative viability ([4]; first compound 0.03 µM): 0.6
relative viability ([4]; first compound 0.09487 µM): 0.637
relative viability ([4]; first compound 0.3 µM): 0.775

NCI-H441
relative viability ([1]; first compound 0.009487 µM): 0.268
relative viability ([1]; first compound 0.03 µM): 0.239
relative viability ([1]; first compound 0.09487 µM): 0.2
relative viability ([1]; first compound 0.3 µM): 0.248
relative viability ([2]; first compound 0.02 µM): 0.715
relative viability ([2]; first compound 0.2 µM): 0.707
relative viability ([2]; first compound 0.6325 µM): 0.711
relative viability ([2]; first compound 2 µM): 0.838
relative viability ([3]; first compound 0.02 µM): 0.238
relative viability ([3]; first compound 0.2 µM): 0.258
relative viability ([3]; first compound 0.6325 µM): 0.251
relative viability ([3]; first compound 2 µM): 0.212
relative viability ([4]; first compound 0.009487 µM): 1.22
relative viability ([4]; first compound 0.03 µM): 1.02
relative viability ([4]; first compound 0.09487 µM): 1.03
relative viability ([4]; first compound 0.3 µM): 1.34

NCI-H460
relative viability ([1]; first compound 0.003 µM): 0.229
relative viability ([1]; first compound 0.009487 µM): 0.1
relative viability ([1]; first compound 0.03 µM): 0.148
relative viability ([1]; first compound 0.09487 µM): 0.226
relative viability ([1]; first compound 0.3 µM): 0.111
relative viability ([2]; first compound 0.02 µM): 0.835
relative viability ([2]; first compound 0.2 µM): 0.951
relative viability ([2]; first compound 0.6325 µM): 0.958
relative viability ([2]; first compound 2 µM): 1.05
relative viability ([3]; first compound 0.02 µM): 0.522
relative viability ([3]; first compound 0.2 µM): 0.494
relative viability ([3]; first compound 0.6325 µM): 0.599
relative viability ([3]; first compound 2 µM): 0.469
relative viability ([4]; first compound 0.003 µM): 0.282
relative viability ([4]; first compound 0.009487 µM): 0.616
relative viability ([4]; first compound 0.03 µM): 0.546
relative viability ([4]; first compound 0.09487 µM): 0.556
relative viability ([4]; first compound 0.3 µM): 0.493

NCI-H647
relative viability ([1]; first compound 0.003 µM): 0.328
relative viability ([1]; first compound 0.009487 µM): 0.377
relative viability ([1]; first compound 0.03 µM): 0.305
relative viability ([1]; first compound 0.09487 µM): 0.395
relative viability ([1]; first compound 0.3 µM): 0.349
relative viability ([2]; first compound 0.02 µM): 1.14
relative viability ([2]; first compound 0.2 µM): 1
relative viability ([2]; first compound 0.6325 µM): 1.12
relative viability ([2]; first compound 2 µM): 1.05
relative viability ([3]; first compound 0.02 µM): 0.475
relative viability ([3]; first compound 0.2 µM): 0.383
relative viability ([3]; first compound 0.6325 µM): 0.335
relative viability ([3]; first compound 2 µM): 0.306
relative viability ([4]; first compound 0.009487 µM): 0.437
relative viability ([4]; first compound 0.09487 µM): 0.32
relative viability ([4]; first compound 0.3 µM): 0.43

NCI-H650
relative viability ([1]; first compound 0.009487 µM): 0.375
relative viability ([1]; first compound 0.03 µM): 0.308
relative viability ([1]; first compound 0.09487 µM): 0.305
relative viability ([1]; first compound 0.3 µM): 0.238
relative viability ([2]; first compound 0.02 µM): 0.669
relative viability ([2]; first compound 0.6325 µM): 0.761
relative viability ([2]; first compound 2 µM): 1.04
relative viability ([3]; first compound 0.02 µM): 0.385
relative viability ([3]; first compound 0.2 µM): 0.344
relative viability ([3]; first compound 0.6325 µM): 0.3
relative viability ([3]; first compound 2 µM): 0.324
relative viability ([4]; first compound 0.009487 µM): 1.08
relative viability ([4]; first compound 0.03 µM): 0.82
relative viability ([4]; first compound 0.09487 µM): 0.663
relative viability ([4]; first compound 0.3 µM): 0.724

NCI-H727
relative viability ([1]; first compound 0.003 µM): 0.598
relative viability ([1]; first compound 0.009487 µM): 0.64
relative viability ([1]; first compound 0.09487 µM): 0.719
relative viability ([1]; first compound 0.3 µM): 0.675
relative viability ([2]; first compound 0.02 µM): 0.826
relative viability ([2]; first compound 0.2 µM): 0.745
relative viability ([2]; first compound 0.6325 µM): 0.841
relative viability ([2]; first compound 2 µM): 0.961
relative viability ([3]; first compound 0.02 µM): 0.827
relative viability ([3]; first compound 0.2 µM): 0.914
relative viability ([3]; first compound 0.6325 µM): 0.753
relative viability ([3]; first compound 2 µM): 0.822
relative viability ([4]; first compound 0.003 µM): 0.472
relative viability ([4]; first compound 0.009487 µM): 0.459
relative viability ([4]; first compound 0.09487 µM): 0.492
relative viability ([4]; first compound 0.3 µM): 0.669

NCI-H838
relative viability ([1]; first compound 0.003 µM): 0.207
relative viability ([1]; first compound 0.009487 µM): 0.238
relative viability ([1]; first compound 0.03 µM): 0.209
relative viability ([1]; first compound 0.09487 µM): 0.214
relative viability ([1]; first compound 0.3 µM): 0.236
relative viability ([2]; first compound 0.02 µM): 0.779
relative viability ([2]; first compound 0.2 µM): 0.755
relative viability ([2]; first compound 0.6325 µM): 0.807
relative viability ([2]; first compound 2 µM): 0.976
relative viability ([3]; first compound 0.02 µM): 0.455
relative viability ([3]; first compound 0.2 µM): 0.471
relative viability ([3]; first compound 0.6325 µM): 0.429
relative viability ([3]; first compound 2 µM): 0.534
relative viability ([4]; first compound 0.003 µM): 0.993
relative viability ([4]; first compound 0.009487 µM): 0.885
relative viability ([4]; first compound 0.03 µM): 0.91
relative viability ([4]; first compound 0.09487 µM): 0.889
relative viability ([4]; first compound 0.3 µM): 0.89
